# Experimental data: patent publication EP0931077B1, “SUBSTITUTED BENZOCYCLOHEPTAPYRIDINE USEFUL AS INHIBITORS OF FARNESYL-PROTEIN TRANSFERASE” (SCHERING CORPORATION, priority 1996, dated 1998)
# Target: farnesyl-protein transferase (Homo sapiens, UniProt P49354+P49356)
# Assay: FPT inhibition (in vitro farnesyl protein transferase inhibition)
# Type: biochemical
SMILES,IC50,also measured
"O=C(NCc1cccnc1)[C@@H]1CCCN1C1c2ccc(Cl)cc2CCc2cc(Br)cnc21 (single isomer, unassigned) [Example 1 Isomer A, 1-(3-Brorno-8-chloro-6,11-dihydro-5H-benzo[5,6]cyclohepta[1,2-b]pyridine-11-yl)-N-(3-pyridinylmethyl)2-pyrrolidine carboxamide]",59 nM,–
"O=C(NCc1cccnc1)[C@@H]1CCCN1C1c2ccc(Cl)cc2CCc2cc(Br)cnc21 (single isomer, unassigned) [Example 1 Isomer B, 1-(3-Brorno-8-chloro-6,11-dihydro-5H-benzo[5,6]cyclohepta[1,2-b]pyridine-11-yl)-N-(3-pyridinylmethyl)2-pyrrolidine carboxamide]",140 nM,–
"O=C(NCc1cccnc1)C1CCCN1C1c2ncc(Br)cc2CCc2cc(Cl)cc(Br)c21 (single isomer, unassigned) [Example 2 Isomer A, 1-(3,10-dibromo-8-chloro-6,11-dihydro-5H-benzo[5,6]cyclohepta[1,2-b]pyridine-11-yl)-N-(3-pyridinylmethyl)-2-pyrrolidine carboxamide]",–,inhibition at 0.3 µM (@ 0.3 µM): 15%
"O=C(NCc1cccnc1)C1CCCN1C1c2ncc(Br)cc2CCc2cc(Cl)cc(Br)c21 (single isomer, unassigned) [Example 2 Isomer B, 1-(3,10-dibromo-8-chloro-6,11-dihydro-5H-benzo[5,6]cyclohepta[1,2-b]pyridine-11-yl)-N-(3-pyridinylmethyl)-2-pyrrolidine carboxamide]",5.2 nM,–
"O=C(NCc1cccnc1)C1CCN1C1c2ccc(Cl)cc2CCc2cc(Br)cnc21 (single isomer, unassigned) [Example 3 Isomer A, 1-(3-bromo-8-chloro-6,11-dihydro-5H-benzo[5,6]cyclohepta[1,2-b]pyridine-11-yl)-N-(3-pyridinylmethyl)2-azetidine carboxamide]",1050 nM,–
"O=C(NCc1cccnc1)C1CCN1C1c2ccc(Cl)cc2CCc2cc(Br)cnc21 (single isomer, unassigned) [Example 3 Isomer B, 1-(3-bromo-8-chloro-6,11-dihydro-5H-benzo[5,6]cyclohepta[1,2-b]pyridine-11-yl)-N-(3-pyridinylmethyl)2-azetidine carboxamide]",–,inhibition at 0.1 µM (@0.1 µM): 17%
